System: 648629-189-R-J1-PDC spheroids with HUVEC/MSC, viability
Assay: Anticancer human tumor 648629-189-R-J1-PDC patient-derived bladder carcinoma cell line growth inhibition [PI3K]
Details: for IC50: curve of first compound; for viability, T/C: stronger effect = lower value
Method in brief: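 Three cell types, namely tumor cells, endothelial cells and mesenchymal stem cells, formed each spheroid. Combinations with four PI3K inhibitors were screened at clinically achievable concentrations decreasing by half-log, and spheroid viability was recorded.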

[1] = second compound 0.00316 µM, first compound 0.0316 µM
[2] = second compound 0.00316 µM, first compound 0.1 µM
[3] = second compound 0.01 µM, first compound 0.0316 µM
[4] = second compound 0.01 µM, first compound 0.1 µM
[5] = second compound 0.0316 µM, first compound 0.0316 µM
[6] = second compound 0.0316 µM, first compound 0.1 µM
[7] = second compound 0.1 µM, first compound 0.0316 µM
[8] = second compound 0.1 µM, first compound 0.1 µM
[9] = second compound 0.316 µM, first compound 0.0316 µM
[10] = second compound 0.316 µM, first compound 0.1 µM
[11] = second compound 1 µM, first compound 0.0316 µM
[12] = second compound 1 µM, first compound 0.1 µM
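Further: spheroids exposed to agents for seven days before reading.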
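Wherever viability, T/C is given: percent of vehicle control luminescence where 100% = DMSO treated spheroids.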

Question: With `CC(C)n1nc(-c2ccc3oc(N)nc3c2)c2c(N)ncnc21` + COc1c(OCCCN2CCOCC2)ccc2c3n(c(=NC(=O)c4cnc(N)nc4)nc12)CCN3 as the compound, how does the IC50 (second compound 0.00316 µM) read?
Answer: 57.4 nM

Question: What about the IC50 (second compound 0.01 µM) of the same compound?
Answer: 46.4 nM

Question: And the IC50 (second compound 0.0316 µM)?
Answer: 35.4 nM

Question: And the IC50 (second compound 0.1 µM)?
Answer: 14.6 nM

Question: What about the IC50 (second compound 0.316 µM) of the same compound?
Answer: < 0.316 nM

Question: What about the IC50 (second compound 1 µM) of the same compound?
Answer: < 0.316 nM

Question: What about the viability, T/C (second compound 0.00316 µM, first compound 0.000316 µM) of the same compound?
Answer: 90.5%

Question: What about the viability, T/C (second compound 0.00316 µM, first compound 0.001 µM) of the same compound?
Answer: 79.5%

Question: What about the viability, T/C (second compound 0.00316 µM, first compound 0.00316 µM) of the same compound?
Answer: 95.2%

Question: And the viability, T/C (second compound 0.00316 µM, first compound 0.01 µM)?
Answer: 77.8%

Question: What about the viability, T/C [1] of the same compound?
Answer: 72.7%

Question: And the viability, T/C [2]?
Answer: 30.3%

Question: And the viability, T/C (second compound 0.01 µM, first compound 0.000316 µM)?
Answer: 86.2%

Question: What about the viability, T/C (second compound 0.01 µM, first compound 0.001 µM) of the same compound?
Answer: 89.9%

Question: And the viability, T/C (second compound 0.01 µM, first compound 0.00316 µM)?
Answer: 90.4%

Question: What about the viability, T/C (second compound 0.01 µM, first compound 0.01 µM) of the same compound?
Answer: 79.5%

Question: What about the viability, T/C [3] of the same compound?
Answer: 62.4%

Question: And the viability, T/C [4]?
Answer: 25.9%

Question: And the viability, T/C (second compound 0.0316 µM, first compound 0.000316 µM)?
Answer: 79.1%

Question: And the viability, T/C (second compound 0.0316 µM, first compound 0.001 µM)?
Answer: 86.4%

Question: And the viability, T/C (second compound 0.0316 µM, first compound 0.00316 µM)?
Answer: 86%

Question: What about the viability, T/C (second compound 0.0316 µM, first compound 0.01 µM) of the same compound?
Answer: 68.3%

Question: What about the viability, T/C [5] of the same compound?
Answer: 54.5%

Question: What about the viability, T/C [6] of the same compound?
Answer: 21.7%

Question: What about the viability, T/C (second compound 0.1 µM, first compound 0.000316 µM) of the same compound?
Answer: 63.1%

Question: And the viability, T/C (second compound 0.1 µM, first compound 0.001 µM)?
Answer: 56.8%

Question: And the viability, T/C (second compound 0.1 µM, first compound 0.00316 µM)?
Answer: 61.1%

Question: And the viability, T/C (second compound 0.1 µM, first compound 0.01 µM)?
Answer: 58.3%

Question: And the viability, T/C [7]?
Answer: 32.8%

Question: What about the viability, T/C [8] of the same compound?
Answer: 13.3%

Question: What about the viability, T/C (second compound 0.316 µM, first compound 0.000316 µM) of the same compound?
Answer: 18.5%

Question: What about the viability, T/C (second compound 0.316 µM, first compound 0.001 µM) of the same compound?
Answer: 21.5%

Question: And the viability, T/C (second compound 0.316 µM, first compound 0.00316 µM)?
Answer: 18.2%

Question: And the viability, T/C (second compound 0.316 µM, first compound 0.01 µM)?
Answer: 15.8%

Question: What about the viability, T/C [9] of the same compound?
Answer: 12.2%

Question: What about the viability, T/C [10] of the same compound?
Answer: 5.55%

Question: What about the viability, T/C (second compound 1 µM, first compound 0.000316 µM) of the same compound?
Answer: 3.09%

Question: And the viability, T/C (second compound 1 µM, first compound 0.001 µM)?
Answer: 3%

Question: And the viability, T/C (second compound 1 µM, first compound 0.00316 µM)?
Answer: 2.48%

Question: And the viability, T/C (second compound 1 µM, first compound 0.01 µM)?
Answer: 3.58%

Question: What about the viability, T/C [11] of the same compound?
Answer: 2.39%

Question: And the viability, T/C [12]?
Answer: 0.95%

Question: What does the source list for `CC1(C)CCC(CN2CCN(c3ccc(C(=O)NS(=O)(=O)c4ccc(NCC5CCOCC5)c([N+](=O)[O-])c4)c(Oc4cnc5[nH]ccc5c4)c3)CC2)=C(c2ccc(Cl)cc2)C1` + COc1c(OCCCN2CCOCC2)ccc2c3n(c(=NC(=O)c4cnc(N)nc4)nc12)CCN3?
Answer: IC50 (second compound 0.00316 µM): > 10000 nM; IC50 (second compound 0.01 µM): > 10000 nM; IC50 (second compound 0.0316 µM): > 10000 nM; IC50 (second compound 0.1 µM): > 10000 nM; IC50 (second compound 0.316 µM): < 31.6 nM; IC50 (second compound 1 µM): < 31.6 nM; viability, T/C [1]: 107%; viability, T/C [2]: 97.6%; viability, T/C (second compound 0.00316 µM, first compound 0.316 µM): 119%; viability, T/C (second compound 0.00316 µM, first compound 1 µM): 108%; viability, T/C (second compound 0.00316 µM, first compound 3.16 µM): 86.5%; viability, T/C (second compound 0.00316 µM, first compound 10 µM): 98.2%; viability, T/C [3]: 104%; viability, T/C [4]: 106%; viability, T/C (second compound 0.01 µM, first compound 0.316 µM): 106%; viability, T/C (second compound 0.01 µM, first compound 1 µM): 91.2%; viability, T/C (second compound 0.01 µM, first compound 3.16 µM): 91%; viability, T/C (second compound 0.01 µM, first compound 10 µM): 102%; viability, T/C [5]: 97%; viability, T/C [6]: 99.8%; viability, T/C (second compound 0.0316 µM, first compound 0.316 µM): 114%; viability, T/C (second compound 0.0316 µM, first compound 1 µM): 89.5%; viability, T/C (second compound 0.0316 µM, first compound 3.16 µM): 92.7%; viability, T/C (second compound 0.0316 µM, first compound 10 µM): 102%; viability, T/C [7]: 65.7%; viability, T/C [8]: 68.8%; viability, T/C (second compound 0.1 µM, first compound 0.316 µM): 65.8%; viability, T/C (second compound 0.1 µM, first compound 1 µM): 63.8%; viability, T/C (second compound 0.1 µM, first compound 3.16 µM): 59.3%; viability, T/C (second compound 0.1 µM, first compound 10 µM): 58.4%; viability, T/C [9]: 24.1%; viability, T/C [10]: 22.1%; viability, T/C (second compound 0.316 µM, first compound 0.316 µM): 23.5%; viability, T/C (second compound 0.316 µM, first compound 1 µM): 19.9%; viability, T/C (second compound 0.316 µM, first compound 3.16 µM): 23.7%; viability, T/C (second compound 0.316 µM, first compound 10 µM): 19.6%; viability, T/C [11]: 4.02%; viability, T/C [12]: 3.65%; viability, T/C (second compound 1 µM, first compound 0.316 µM): 4.06%; viability, T/C (second compound 1 µM, first compound 1 µM): 3.2%; viability, T/C (second compound 1 µM, first compound 3.16 µM): 3.26%; viability, T/C (second compound 1 µM, first compound 10 µM): 2.9%

Reference: PubChem BioAssay AID1963974 (Molecular Pharmacology Branch, DTP, NCI, 2024)
